Biological target: SGK1 (human) (UniProt O00141)
Test: Flashplate

Sequence of SGK1 (human) (O00141 whole entry, looked up): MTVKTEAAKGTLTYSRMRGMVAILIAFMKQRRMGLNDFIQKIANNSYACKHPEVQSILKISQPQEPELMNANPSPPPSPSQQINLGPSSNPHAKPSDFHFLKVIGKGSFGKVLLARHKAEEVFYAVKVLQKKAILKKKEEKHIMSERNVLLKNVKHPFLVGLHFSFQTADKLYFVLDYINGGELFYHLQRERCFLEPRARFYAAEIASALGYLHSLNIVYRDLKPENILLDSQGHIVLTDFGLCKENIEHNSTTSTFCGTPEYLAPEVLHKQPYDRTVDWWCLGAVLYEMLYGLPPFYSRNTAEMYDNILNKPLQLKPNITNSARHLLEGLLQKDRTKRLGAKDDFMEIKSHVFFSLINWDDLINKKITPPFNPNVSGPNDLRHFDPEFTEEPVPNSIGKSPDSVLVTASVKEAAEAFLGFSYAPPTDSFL

Ki [µM]	Compound
5.01	O=C1NCCc2[nH]c(-c3ccncc3)cc21
> 10	O=C(Cc1ccccc1Cl)Nc1ccc2cn[nH]c2c1
> 10	CCN1CCN(CCCC(=O)Nc2n[nH]c3nnc(-c4cccc(F)c4F)cc23)CC1
> 10	CC1(C)CC(=O)C2=C(C1)Nc1cc(Cl)ccc1S2
> 10	Nc1ncnc2sc(Br)c(-c3ccc(NC(=O)Cc4cccc(Cl)c4)cc3)c12
> 10	O=C(Nc1cccc(Cl)c1)Nc1ncc(CCNc2ncnc3ccsc23)s1
1.58	S=c1[nH]nc2c3c4c(sc3n3c(=S)[nH]nc3n12)CCC4
> 10	CC(C)(C)c1n[nH]c2c1C(c1ccccc1F)C(C#N)=C(N)O2 (configuration not stated)
1.26	NS(=O)(=O)c1cccc(Nc2ncc3ccn(-c4ccccc4)c3n2)c1
0.251	Cc1c[nH]c2nccc(Oc3c(F)cc(Nc4cc(Cl)nc(N)n4)cc3F)c12
> 10	CCCCNc1ccc2c3c(cccc13)C(=O)N(CCNCCO)C2=O
3.98	CCS(=O)(=O)c1ccc(-c2cncc3sc(C(N)=O)cc23)cc1
> 10	O=C(NCc1ccccc1)Nc1ncc([N+](=O)[O-])s1
> 10	CCN(CC)C(=O)Nc1ccc2nc(-c3ccco3)c(-c3ccco3)nc2c1
> 10	Nc1nonc1-n1nnc(C(=O)N/N=C/c2cccs2)c1-c1cccs1
2	C[C@@H](NC(=O)c1ccc(-c2ccncc2)cc1)c1ccccc1
> 10	COc1cc(-c2ccc3c(c2)Nc2ccc(CCOc4ccc(N5CCOCC5)cc4)cc2NC3=O)ccc1CC#N
1.26	Cc1cc(NC(=O)Cc2ccc(-c3cccc4[nH]nc(N)c34)cc2)ccc1F
> 10	CCCCn1c(NC(=O)c2ccc(C#N)cc2)nc2cc(N(C)C(=O)C3CCCCC3)ccc21
> 10	N#Cc1cnc(NC(=O)Nc2ccc3cc(C(=O)O)ccc3c2)cn1
> 10	CC(C)Oc1ccc(-c2noc(-c3ccc(N[C@H]4CC[C@@H](C(=O)O)C4)cc3)n2)cc1Cl
0.398	COc1ccc(C(=O)N2c3ccccc3Sc3c(Cl)cncc32)cc1
0.501	O=C(O)c1ccccc1Nc1ccnc(Nc2ccc3[nH]ncc3c2)n1
> 10	Cc1cccc(NC(=O)Nc2ccc(-c3cccc4c3CNC4=O)cc2C)c1
> 10	Cc1nsc2[nH]cc(C(=O)O)c(=O)c12
2.51	Nc1ncnc2c1N=C(c1ccc(NC(=O)Nc3cc(C(F)(F)F)ccc3F)cc1)CCN2

Ki [µM]	Compound
> 10	COc1cccc(Nc2ncnc3ccccc23)c1
3.16	CCCn1c(C2CCNCC2)nc(-c2ccc(Cl)c(Cl)c2)c1-c1ccnc(NC2CCCCC2)n1
3.16	N#Cc1ccc2[nH]c(O)c(-c3ccc(CN4CCOCC4)cn3)c2c1
> 10	CNC(=O)c1ccccc1Sc1ccc2c(/C=C/c3ccccn3)n[nH]c2c1
> 10	CC(C)(C)NC(=O)c1ccc2nc3[nH]c4ccccc4c3nc2c1
2	Cc1cc(C)c(/C=C2\C(=O)Nc3ccccc32)[nH]1
7.94	c1cc2[nH]ncc2cc1-c1cn(CC2CCOCC2)nn1
3.98	OCCNc1cc2cc(-c3cccnc3)ccc2cn1
> 10	Nc1ncnc2scc(C(=O)Nc3ccc(NC(=O)Nc4ccccc4)cc3)c12
> 10	Fc1ccc(-c2nc(-c3ccc(F)cc3)c(-c3ccncc3)[nH]2)cc1
5.01	NCC1CCC(CNc2nc(NCc3ccccc3Cl)ncc2[N+](=O)[O-])CC1 (configuration not stated)
> 10	COc1cc(Nc2ncnc3ccc(-c4ccc(CN5C[C@@H]6C(CO)[C@@H]6C5)cc4)cc23)ccc1Oc1ccccc1 (some centres not stated)
> 10	Cc1nn(C)c(C)c1-c1cccc2c(CCCOc3cccc4ccccc34)c(C(=O)O)[nH]c12
> 10	CN(C(=O)C1CCCCC1)c1ccc2c(c1)nc(NC(=O)c1ccc(C#N)cc1)n2C
6.31	O=S(=O)(c1cccc2cnccc12)N1CCCNCC1
> 10	Oc1cccc(Nc2ncnc3scc(Cl)c23)c1
> 10	O=C(NS(=O)(=O)c1ccc(NCCSc2ccc(O)cc2)c([N+](=O)[O-])c1)c1ccc(-c2ccc(F)cc2)cc1
> 10	NCCCNS(=O)(=O)c1cccc(C(=O)Nc2ccc(-c3n[nH]c(=O)c4ccccc34)cc2)c1
3.16	C/C(=N/NC(=N)N)c1cc(NC(=O)NCCCCCCNC(=O)Nc2cc(/C(C)=N\NC(=N)N)cc(/C(C)=N/NC(=N)N)c2)cc(/C(C)=N/NC(=N)N)c1
> 10	O=c1[nH]cnc2c1sc1c(Cl)ccc(Cl)c12
> 10	Cn1cc(-c2cnc(N)c3c(-c4ccc(NC(=O)Nc5ccc(OC(F)F)cc5)cc4)csc23)cn1
> 10	O=C(NNC(=S)Nc1ccc(Cl)cc1)C(O)(c1ccccc1)c1ccccc1
> 7.94	COc1cc2c(N3CCN(C(=O)Nc4ccc(OC(C)C)cc4)CC3)ncnc2cc1OCCCN1CCCCC1
> 10	Cc1cc(C)cc(NC(=O)Nc2ccc(-c3cccc4snc(N)c34)cc2)c1
> 10	CCOc1nc(NC(=O)Cc2cc(OC)ccc2OC)cc(N)c1C#N
2.51	C[C@@H](O)Cn1cc(-c2cnc(N)c3c(-c4ccc(NC(=O)Nc5cccc(F)c5)cc4)csc23)cn1

Ki [µM]	Compound
> 10	COc1cc(Nc2nccc(Nc3cc(C4CCCCC4)no3)n2)cc(OC)c1OC
> 10	Cc1n[nH]c2c1C(c1ccccc1Cl)C(C#N)=C(N)O2 (configuration not stated)
1	O[C@H]1CC[C@H](Nc2cc(Cl)nc(-c3c[nH]c4ncccc34)n2)CC1
> 6.31	CCOc1nc(C(=O)NCc2ccccc2S(N)(=O)=O)cc(N)c1C#N
> 10	Cc1c(C)n(Cc2ccccc2)c2ccc(C(=O)Nc3nc[nH]n3)cc12
0.0398	O=C1NN=Cc2c[nH]c3cc(NC(=O)[C@@H]4C[C@H]4c4ccccc4)cc1c23
> 10	COc1ccc(/C=N/Nc2ncnc3c2[nH]c2ccccc23)cc1OC
> 10	CCOc1nc(C(=O)NCc2ccc(S(C)(=O)=O)cc2)cc(N)c1Cl
> 10	Oc1ccc(Nc2ncnc3scc(Cl)c23)cc1
2	c1cc2cc(-c3ccc4cn[nH]c4c3)cnc2[nH]1
7.94	CN1CCC(C(=O)n2nc(N)c3cc(-c4cn(Cc5ccccc5)nn4)ccc32)CC1
> 10	CCCCNC1=NS(=O)N=C1Nc1ccc(F)cc1 (configuration not stated)
1	Cc1cccc(NC(=O)Nc2ccc(-c3cccc4[nH]nc(N)c34)cc2)c1
> 10	N[C@@H](COCc1ccccc1)COc1cncc(/C=C/c2ccncc2)c1
> 10	CNc1nccn2c(-c3ccnc(NCC(C)(C)CO)n3)c(-c3ccc(F)cc3)nc12
2.51	Cn1cc(/C=C2\C(=O)Nc3cccnc32)c2ccccc21
> 10	Cc1cccc(NC(=O)Nc2ccc(-c3csc4c(-c5cnn(C)c5)cnc(N)c34)cc2)c1
> 10	O=C1NCCc2[nH]c(-c3ccnc(-c4ccccc4F)c3)cc21
> 10	O=C1NC(=O)C(c2cnc3ccccn23)=C1c1cn2c3c(cccc13)CN(C(=O)N1CCOCC1)CC2
5.01	Cc1cc(O)ccc1-n1c2cc(Cl)ccc2c(=O)c2c(N)nc(N)nc21
> 10	O=C1NC(=O)C(c2cnc3ccccn23)=C1c1cn2c3c(cc(F)cc13)CN(C(=O)N1CCCCC1)CC2
> 10	COc1ccc(-c2ccc(NC(=O)Nc3cc(F)cc(F)c3)cc2)c2c(N)noc12
> 10	Nc1nccc2scc(-c3ccc(NC(=O)Nc4cccc(Cl)c4)cc3)c12
> 10	COCCOCC#Cc1cc(-c2n[nH]c3c2C(=O)c2cc(CN4CCN(C)CC4)ccc2-3)cs1

Compound	Ki [µM]
N[C@H](COc1cc(/C=C/c2ccncc2)cnc1Cl)Cc1c[nH]c2ccccc12	> 10

— the kinase profiling compilation of Christmann-Franck et al. (2016)
